The assay relates to E. coli MG1655::aspCproApProNde (control). In words: AcrAB k.o. validation: growth (OD 600 nm) with novobiocin / sodium decanoate, control strain. In kind it is cell-based, Escherichia coli. The conditions noted are these: sodium decanoate 2.5 mM; novobiocin 0 ppm. As for the experimental part: Single chloramphenicol-resistant colonies were purified by restreaking on appropriate selective media and single colonies were tested by PCR as previously described for the BW25113 knockout strains, to verify the presence of the emrB and acrAB knockouts. The effects of the emrB and acrAB knockouts on the EmrAB and AcrAB transporter systems respectively were determined by assessing the phenotype of the transport mutants using appropriate antibiotics and comparison to wild type control microorganisms as shown in Table 3.1 and Table 3.2 below.

Turning to `CCCCCCCCCC(=O)[O-].[Na+]` [sodium decanoate], the “OD 600 nm at 19 hours” value is listed as 1.396.

The record behind these values is patent US8158389B2, “Products and methods for in vivo secretion of monatin” (priority 2005, dated 2012).
